From patent US9695155B2, “Herbicidal substituted pyrimidinyloxy benzene compounds” (E. I. DU PONT DE NEMOURS AND COMPANY, priority 2013, dated 2017)

Tests used:
goosegrass = assay: Test C postemergence; format: in vivo, Eleusine indica; details: for Plant response rating (0 to 100), Goosegrass: postemergence; for Plant response rating, Goosegrass: Postemergence, scale 0 to 100 (0 no effect, 100 complete control)
Excerpt: (§1) Seeds of plant species selected from blackgrass (Alopecurus myosuroides), Italian ryegrass (Lolium multiflorum), wheat, winter (winter wheat, Triticum aestivum), galium (catchweed bedstraw, Galium aparine), corn (Zea mays), large (Lg) crabgrass (Digitaria sanguinalis), giant foxtail (Setaria faberii), johnsongrass (Sorghum halepense), lambsquarters (Chenopodium album), morningglory (Ipomoea coccinea), yellow nutsedge (Cyperus esculentus), pigweed (Amaranthus retroflexus), ragweed (common ragweed, Ambrosia elatior), soybean (Glycine max), barnyardgrass (Echinochloa crus-galli), oilseed rape (Brassica napus), waterhemp (common waterhemp, Amaranthus rudis), kochia (Kochia scoparia), wild oat (Avena fatua), surinam grass (Brachiaria decumbens), foxtail, green (green foxtail, Setaria viridis), goosegrass (Eleusine indica), bromegrass, downy (downy bromegrass, Bromus tectorum), nightshade (eastern black nightshade, Solanum ptycanthum), cocklebur (common cocklebur, Xanthium strumarium), cupgrass, woolly (woolly cupgrass, Eriochloa villosa), bermudagrass (Cynodon dactylon), sunflower, (common oilseed sunflower, Helianthus annuus), Russian thistle (Salsola kali), and velvetleaf (Abutilon theophrasti) were planted into a blend of loam soil and sand and treated preemergence with test chemicals formulated in a non-phytotoxic solvent mixture which included a surfactant.
(§2) At the same time, plants selected from these crop and weed species and also barley, winter (winter barley, Hordeum vulgare), windgrass (Apera spica-venti), chickweed (common chickweed, Stellaria media), deadnettle (henbit deadnettle, Lamium amplexicaule), and canarygrass (littleseed canarygrass, Phalaris minor) were planted in pots containing Redi-Earth® planting medium (Scotts Company, 14111 Scottslawn Road, Marysville, Ohio 43041) comprising spaghnum peat moss, vermiculite, wetting agent and starter nutrients and treated with postemergence applications of test chemicals formulated in the same manner. Plants ranged in height from 2 to 18 cm (1- to 4-leaf stage) for postemergence treatments. Treated plants and controls were maintained in a greenhouse for 13 to 15 days, after which time all species were compared to controls and visually evaluated. Plant response ratings, summarized in Table C, are based on a scale of 0 to 100 where 0 is no effect and 100 is complete control. A dash (-) response means no test result.

cupgrass, woolly = assay: Test C postemergence; format: in vivo, Eriochloa villosa; details: for Plant response rating (0 to 100), Cupgrass, Woolly: postemergence; for Plant response rating, Cupgrass, Woolly: Postemergence, scale 0 to 100 (0 no effect, 100 complete control)
Excerpt: as §1, §2

cocklebur [1] = assay: Test C postemergence; format: in vivo, Xanthium strumarium; details: for Plant response rating (0 to 100), Cocklebur: postemergence; for Plant response rating, Cocklebur: Postemergence, scale 0 to 100 (0 no effect, 100 complete control)
Excerpt: as §1, §2

bromegrass, downy = assay: Test C postemergence; format: in vivo, Bromus tectorum; details: for Plant response rating (0 to 100), Bromegrass, Downy: postemergence; for Plant response rating, Bromegrass, Downy: Postemergence, scale 0 to 100 (0 no effect, 100 complete control)
Excerpt: as §1, §2

foxtail, green = assay: Test C postemergence; format: in vivo, Setaria viridis; details: for Plant response rating (0 to 100), Foxtail, Green: postemergence; for Plant response rating, Foxtail, Green: Postemergence, scale 0 to 100 (0 no effect, 100 complete control)
Excerpt: as §1, §2

surinam grass = assay: Test C postemergence; format: in vivo, Brachiaria decumbens; details: for Plant response rating (0 to 100), Surinam Grass: postemergence; for Plant response rating, Surinam Grass: Postemergence, scale 0 to 100 (0 no effect, 100 complete control)
Excerpt: as §1, §2

smartweed = assay: Test E postemergence; format: in vivo, ladysthumb smartweed
Excerpt: Seeds of plant species selected from corn (Zea mays), soybean (Glycine max), velvetleaf (Abutilon theophrasti), lambsquarters (Chenopodium album), wild poinsettia (Euphorbia heterophylla), palmer pigweed (Amaranthus palmeri), waterhemp (common waterhemp, Amaranthus rudis), surinam grass (Brachiaria decumbens), large (Lg) crabgrass (Digitaria sanguinalis), Brazilian crabgrass (Digitaria horizontalis), fall panicum (Panicum dichotomiflorum), giant foxtail (Setaria faberii), green foxtail (Setaria viridis), goosegrass (Eleusine indica), johnsongrass (Sorghum halepense), ragweed (common ragweed, Ambrosia elatior), barnyardgrass (Echinochloa crus-galli), sandbur (southern sandbur, Cenchrus echinatus), arrowleaf sida (Sida rhombifolia), Italian ryegrass (Lolium multiflorum), dayflower (Virginia (VA) dayflower, Commelina virginica), field bindweed (Convolvulus arvensis), morningglory (Ipomoea coccinea), nightshade (eastern black nightshade, Solanum ptycanthum), kochia (Kochia scoparia), yellow nutsedge (Cyperus esculentus), cocklebur (common cocklebur, Xanthium strumarium), smartweed (ladysthumb smartweed, and hairy beggarticks (Bidens pilosa), were planted into a silt loam soil and treated preemergence with test chemicals formulated in a non-phytotoxic solvent mixture which included a surfactant.
At the same time, plants from these crop and weed species and also horseweed (Canada horseweed, Conyza canadensis), waterhemp_RES1, (ALS & Triazine resistant common waterhemp, Amaranthus rudis), and waterhemp_RES2, (ALS & HPPD resistant common waterhemp, Amaranthus rudis) were planted in pots containing Redi-Earth® planting medium (Scotts Company, 14111 Scottslawn Road, Marysville, Ohio 43041) comprising spaghnum peat moss, vermiculite, wetting agent and starter nutrients were treated with postemergence applications of test chemicals formulated in the same manner. Plants ranged in height from 2 to 18 cm for postemergence treatments (1- to 4-leaf stage). Treated plants and controls were maintained in a greenhouse for 14 to 21 days, after which time all species were compared to controls and visually evaluated. Plant response ratings, summarized in Table E, are based on a scale of 0 to 100 where 0 is no effect and 100 is complete control. A dash (-) response means no test result.

kochia = assay: Test C preemergence; format: in vivo, Kochia scoparia; details: for Kochia plant response rating: preemergence, scale 0 (no effect) to 100 (complete control); for Plant response rating, Kochia: Preemergence, 31 g ai/ha, scale 0 to 100, 0 no effect, 100 complete control
Excerpt: as §1, §2

cocklebur [2] = assay: Test C preemergence; format: in vivo, Xanthium strumarium; details: for Cocklebur plant response rating: preemergence, scale 0 (no effect) to 100 (complete control); for Plant response rating, Cocklebur: Preemergence, 31 g ai/ha, scale 0 to 100, 0 no effect, 100 complete control
Excerpt: as §1, §2

[3] = Postemergence, 62 g ai/ha, scale 0 to 100
[4] = Postemergence, 125 g ai/ha, scale 0 to 100
[5] = Postemergence, 250 g ai/ha, scale 0 to 100
[6] = postemergence, 16 g ai/ha, scale 0 to 100, 0 no effect, 100 complete control
[7] = Postemergence, 31 g ai/ha, scale 0 to 100

Compound	Plant response rating (0 to 100), Goosegrass (goosegrass; 125 g ai/ha)	Plant response rating (0 to 100), Goosegrass (goosegrass; 250 g ai/ha)	Plant response rating, Goosegrass (goosegrass; 31 g ai/ha, 13 to 15 days)	Plant response rating, Goosegrass (goosegrass; 62 g ai/ha)	Plant response rating (0 to 100), Cupgrass, Woolly (cupgrass, woolly; 125 g ai/ha)	Plant response rating (0 to 100), Cupgrass, Woolly (cupgrass, woolly; 250 g ai/ha)	Plant response rating, Cupgrass, Woolly (cupgrass, woolly; 31 g ai/ha, 13 to 15 days)	Plant response rating, Cupgrass, Woolly (cupgrass, woolly; 62 g ai/ha)	Plant response rating (0 to 100), Cocklebur (cocklebur [1]; 250 g ai/ha)	Plant response rating, Cocklebur (cocklebur [1]; 31 g ai/ha, 13 to 15 days)	Plant response rating, Cocklebur (cocklebur [1]; 62 g ai/ha)	Plant response rating (0 to 100), Bromegrass, Downy (bromegrass, downy; 125 g ai/ha)	Plant response rating (0 to 100), Bromegrass, Downy (bromegrass, downy; 250 g ai/ha)	Plant response rating, Bromegrass, Downy (bromegrass, downy; 31 g ai/ha, 13 to 15 days)	Plant response rating, Bromegrass, Downy (bromegrass, downy; 62 g ai/ha)	Plant response rating (0 to 100), Foxtail, Green (foxtail, green; 125 g ai/ha)	Plant response rating (0 to 100), Foxtail, Green (foxtail, green; 250 g ai/ha)	Plant response rating, Foxtail, Green (foxtail, green; 31 g ai/ha, 13 to 15 days)	Plant response rating (0 to 100), Surinam Grass (surinam grass; 125 g ai/ha)	Plant response rating, Surinam Grass (surinam grass; 31 g ai/ha, 13 to 15 days)	also measured
Fc1cnc(Oc2ccccc2-n2cc(Br)cn2)nc1 [Compound 10, 2-[2-(4-bromo-1H-pyrazol-1-yl)phenoxy]-5-fluoropyrimidine]	5	10	0	5	5	15	0	5	100	45	55	10	15	5	5	0	30	0	15	0	Plant response rating (0 to 100), Cocklebur (cocklebur [1]; 125 g ai/ha): 55; Plant response rating, Foxtail, Green (foxtail, green; 62 g ai/ha): 0; Plant response rating (0 to 100), Surinam Grass (surinam grass; 250 g ai/ha): 15; Plant response rating, Surinam Grass (surinam grass; 62 g ai/ha): 10
N#Cc1cccc(Oc2ncc(Br)cn2)c1-n1cc(C(F)(F)F)cn1 [Compound 59, 3-[(5-bromo-2-pyrimidinyl)oxy]-2-[4-(trifluoromethyl)-1H-pyrazol-1-yl]benzonitrile]	–	–	–	–	–	–	–	–	–	–	–	–	–	–	–	–	–	–	–	–	Plant response rating, Smartweed (smartweed; [3]): 80; Plant response rating, Smartweed (smartweed; [4]): 100; Plant response rating, Smartweed (smartweed; [5]): 100; Plant response rating, Smartweed (smartweed; [6]): 55
Clc1cnc(Oc2ccccc2-n2cc(Br)cn2)nc1 [Compound 7, 2-[2-(4-bromo-1H-pyrazol-1-yl)phenoxy]-5-chloropyrimidine]	15	15	0	5	25	25	10	20	80	35	45	10	10	5	5	50	98	0	30	15	Plant response rating (0 to 100), Cocklebur (cocklebur [1]; 125 g ai/ha): 55; Plant response rating, Smartweed (smartweed; [7]): 40; Plant response rating, Smartweed (smartweed; [3]): 70; Plant response rating, Smartweed (smartweed; [4]): 100; Plant response rating, Smartweed (smartweed; postemergence, 8 g ai/ha, scale 0 to 100, 0 no effect, 100 complete control): 15; Plant response rating, Smartweed (smartweed; [6]): 30; Kochia plant response rating (kochia; 62 g ai/ha): 95; Kochia plant response rating (kochia; 125 g ai/ha): 100; Kochia plant response rating (kochia; 250 g ai/ha): 100; Plant response rating, Kochia (kochia): 55; Cocklebur plant response rating (cocklebur [2]; 62 g ai/ha): 5; Cocklebur plant response rating (cocklebur [2]; 125 g ai/ha): 5; Cocklebur plant response rating (cocklebur [2]; 250 g ai/ha): 5; Plant response rating, Cocklebur (cocklebur [2]): 0; Plant response rating, Surinam Grass (surinam grass; 62 g ai/ha): 20
FC(F)(F)c1cnn(-c2ccccc2Oc2ncc(Cl)cn2)c1 [Compound 16]	15	30	0	10	20	30	5	15	80	50	55	5	5	0	5	30	100	10	40	10	Kochia plant response rating (kochia; 62 g ai/ha): 80; Kochia plant response rating (kochia; 125 g ai/ha): 85; Kochia plant response rating (kochia; 250 g ai/ha): 100; Plant response rating, Kochia (kochia): 50; Cocklebur plant response rating (cocklebur [2]; 62 g ai/ha): 5; Cocklebur plant response rating (cocklebur [2]; 125 g ai/ha): 5; Cocklebur plant response rating (cocklebur [2]; 250 g ai/ha): 20; Plant response rating, Cocklebur (cocklebur [2]): 0; Plant response rating, Foxtail, Green (foxtail, green; 62 g ai/ha): 30; Plant response rating (0 to 100), Surinam Grass (surinam grass; 250 g ai/ha): 40; Plant response rating, Surinam Grass (surinam grass; 62 g ai/ha): 15
FC(F)(F)c1cnn(-c2ccccc2Oc2ncc(Br)cn2)c1 [Compound 18, 5-bromo-2-[2-[4-(trifluoromethyl)-1H-pyrazol-1-yl]phenoxy]pyrimidine]	–	–	–	–	–	–	–	–	–	–	–	–	–	–	–	–	–	–	–	–	Kochia plant response rating (kochia; 62 g ai/ha): 60; Kochia plant response rating (kochia; 125 g ai/ha): 80; Kochia plant response rating (kochia; 250 g ai/ha): 98; Plant response rating, Kochia (kochia): 15; Cocklebur plant response rating (cocklebur [2]; 62 g ai/ha): 0; Cocklebur plant response rating (cocklebur [2]; 250 g ai/ha): 15
N#Cc1cccc(Oc2ncc(Cl)cn2)c1-n1cc(C(F)(F)F)cn1 [Compound 58, 3-[(5-chloro-2-pyrimidinyl)oxy]-2-[4-(trifluoromethyl)-1H-pyrazol-1-yl]benzonitrile]	–	–	–	–	–	–	–	–	–	–	–	–	–	–	–	–	–	–	–	–	Plant response rating, Smartweed (smartweed; [7]): 65; Plant response rating, Smartweed (smartweed; [3]): 85; Plant response rating, Smartweed (smartweed; [4]): 100; Plant response rating, Smartweed (smartweed; [5]): 100; Plant response rating, Smartweed (smartweed; [6]): 50
